Experimental data published in patent US9829499B2, “Method and related systems for use with a fluidics device” (SciKon Innovation, Inc., priority 2015, dated 2017).
Where two headings read alike, the source gives them in different places.

Key:
[1] = test system: HepG2 cells
Method: (§1) To compare the effects of flow on response of HepG2 cells to Tamoxifen, cells were treated in the wells of the fluidics device where the drug was applied either to the source well at two different rates (2× and 3×), or was applied directly to individual wells in the absence of flow (static). For each condition, HepG2 cells were seeded into the individual wells of the fluidics device at a density of 30,000 cells per well in 50 uL media. This density corresponded to approximately 60% confluence. […] HepG2 cells in a fluidics device were treated with increasing concentrations of Tamoxifen over time. 150 uM of Tamoxifen was infused into the source well of the fluidics device either 2 times per day (2×) or three times per day (3×). Two acellular rows were infused with 1 uM Fluorscein to enable calculation of absolute concentration at any given time. The reagent CellTox™ Green was used to monitor cellular toxicity. Area under the curve values for each timepoint were obtained and plotted against effect expressed as a % maximum of (treated/control). Data was pooled together to obtain a single plot. EC50 values were calculated by a Sigmoid EMax model in PKSolver.
(§2) For the 2× and 3× experiment, to utilize Fluorescein as a standard for concentration, rows A and B remained acellular. After acclimating one day, media was changed to media containing a 1:2000 dilution of CellTox™ Green using volume of 100 uL per well. 400 uL of CellTox™ Green containing media was also added to the source well. Fluidic connections were allowed to form and stabilize for 30 minutes at 37° C. in a humidified incubator. Once fluid connections in each row was confirmed, 200 uL of media containing CellTox™ Green with either 150 uM Tamoxifen in 0.1% DMSO or 0.1% DMSO alone was added to the source well. To rows A&B, 200 uL of 1 uM Fluorescein in 0.1% DMSO was added to the source well. For all conditions, fluorescence was monitored using a Tecan Infinite Pro M1000 multimode plate reader optimized for Z-heights focal plane. For the 2× and 3× plates, media flow was maintained by syphoning 100 uL from well 11 and applying 100 uL fresh dosing solution to the source well at cadence corresponding to twice pre day (2×) or three times per day (3×).
(§3) For static fluid conditions, after seeding, cells acclimated for one day and then media was changed to 50 uL of media containing the noted concentration of Tamoxifen in 0.1% DMSO or 0.1% DMSO alone. Incubation proceeded for 24 hours where analysis of fluorescence determined the degree of cell death in each well. Nine replicates of each concentration were averaged.
(§4) For determining the concentration at any given time in the 2× and 3× flow plates, the RFU values obtained from the a-cellular Fluorescein control rows were averaged for each column and an actual Fluorescein concentration was determined using the Fluorescein Standard curve (see FIG. 33). The starting concentration of Fluorescein was 1 uM and the starting concentration of Tamoxifen was 150 uM therefore, the amount of fluorescein in each well was multiplied by 150 to obtain the corresponding concentration of Tamoxifen. The area under the curve (AUC) for each timepoint was obtained by multiplying the concentration value by the time in hours since the last time point using the AUCt function in PKSolver. For static conditions, the concentration was constant for the entire treatment time, therefore to obtain AUC the concentration was multiplied by 24 hours. […]

[2] = test system: cultured cells; experiment: Viable cells by CellTiter-Glo, static plates versus fluidics device cultured cells treated over 7 and 9 days; format: cell-based
Excerpt: Referring to FIG. 46, a comparison of static plates and fluidics device 100 cultured cells treated with acetaminophen (APAP) over 7 and 9 days is depicted. CellTiter-Glo was used to measure viable cells. Data is normalized to vehicle (DMSO) control.

[3] = test system: HepG2 cells; experiment: Cytotoxicity of HepG2 cells with CellTox Green, fluidics device (flow) versus static culture, EC50 based on AUC exposure
Method: as §1, §2, §3, §4

Observed EC-50 in downstream wells versus expected when using standard static culture methods [1]	Compound	what the observed EC50 suggests (effect of metabolism on cytotoxicity) [1]	toxicity (viable cells, normalized to vehicle control) ([2]; fluidics device, Day 7)	toxicity (viable cells, normalized to vehicle control) ([2]; fluidics device, Day 9)	toxicity (viable cells, normalized to vehicle control) ([2]; static plate, Day 9, 2.5 mM)	toxicity (viable cells, normalized to vehicle control) ([2]; static plate, Day 9, highest concentration 5 mM)	toxicity (viable cells, normalized to vehicle control) ([2]; static plates, Day 7)	sensitivity of HepG2 cells in the flow system relative to static systems (comparison of AUC EC-50s) ([3]; CellTox Green, flow system less sensitive than static)	Observed EC-50 in downstream wells versus expected when using standard static culture methods ([3]; fluidics device downstream wells)	what the observed EC50 suggests (effect of metabolism on cytotoxicity) ([3]; fluidics device downstream wells versus static)
different from expected	CC(=O)Nc1ccc(O)cc1 [APAP, Acetaminophen]	bio-activation of a toxic intermediate	downstream cell death effect	More pronounced downstream metabolite effect	marginal effect	obvious cell death	marginally detectable only at highest concentration			
	CC/C(=C(\c1ccccc1)c1ccc(OCCN(C)C)cc1)c1ccccc1 [Tamoxifen]							approximately 4 fold	different from expected	deactivation
